Read-outs that look alike come from different tables or passages of the source. Values belong to the compound of their own block, whether it stands above or below them.
Legend:
MAGL enzyme = target: T1, MAGL enzyme (Homo sapiens, UniProt Q99685); experiment: MAGL reversible inhibition assay (return of activity after washout); assay type: biochemical; settings: for A: degree to which MAGL enzymatic activity returned following washout: pre-washout compound concentration 1 μM, relative to control without inhibitor
T1 sequence (Q99685 1-303): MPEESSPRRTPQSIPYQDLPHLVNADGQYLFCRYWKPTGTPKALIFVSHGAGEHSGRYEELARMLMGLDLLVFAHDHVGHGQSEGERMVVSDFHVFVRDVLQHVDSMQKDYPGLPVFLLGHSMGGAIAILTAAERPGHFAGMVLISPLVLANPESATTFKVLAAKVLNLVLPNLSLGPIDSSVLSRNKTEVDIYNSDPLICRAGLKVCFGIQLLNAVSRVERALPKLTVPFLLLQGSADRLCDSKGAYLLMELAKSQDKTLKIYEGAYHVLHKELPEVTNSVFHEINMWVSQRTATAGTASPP
Experimental: Example 24: Measuring Reversible MAUL Inhibition (IC50)
The reversible mechanism of MAGL inhibition of a test compound of Formula (I) can be determined. Flag-tagged MAGL enzyme will be immobilized on anti-Flag beads. […] Colorimetric substrate (4-NPA) will be added and the reaction monitored on a plate reader for 30 minutes to verify complete inhibition. Immobilized enzyme will then be washed thoroughly to remove the inhibitor, and fresh substrate will be added. The reaction will be monitored for an additional 30 minutes; returning enzymatic activity will indicate reversibility of inhibition.
Determining MAGL Reversible Inhibition:
MAGL enzyme was incubated for 30 minutes in the presence of 40× the IC50 concentration of inhibitor. […] Substrate was added and the reaction was monitored for 30 minutes.

[1] = Pharmacokinetic study of compounds in mice (brain exposure); assay type: in vivo, male C57BL/6 mice; settings: male, C57BL/6, mouse, oral, 5 mg/kg, Protocols B-E
Experimental: Example 25: Pharmacokinetic Study of Compounds in Mice
Healthy male C57BL/6 mice (8-12 weeks old) weighing between 17 to 35 g were procured from Global, India. Temperature and humidity were maintained at 22±3° C. and 30-70%, respectively and illumination was controlled to give a sequence of 12 hr light and 12 hr dark cycle. Temperature and humidity were recorded by auto-controlled data logger system. All the animals were provided laboratory rodent diet. Reverse osmosis water treated with ultraviolet light was provided ad libitum.
Protocol A: Twenty-four male mice were divided into two groups as; Group 1: 30 mg/kg/IP; Plasma and brain; Number of animals=12; Animal #1-12. Group 2: 30 mg/kg/PO; Plasma and brain; Number of animals=12; Animal #13-24. Animals in Group 1 were administered intraperitoneally with solution formulation of PSY-05-00074-001 in 5% NMP, 5% Solutol HS-15 and 90% normal saline at […] dose. Animals in Group 2 were administered orally with solution formulation of PSY-05-00074-001 in 5% NMP, 5% Solutol HS-15 and 90% normal saline at 30 mg/kg dose. Blood samples (approximately 60 μL) were collected under light isoflurane anesthesia from retro orbital plexus at 0.25, 0.5, 1, 2, 4 and 8 hr (IP and PO). Plasma samples were separated by centrifugation of whole blood and stored below −70° C. until bioanalysis. Immediately after collection of blood from intraperitoneal and oral group animals, animals were euthanized with excess CO2 and brain samples were collected from set of two mice at each time point. Brain samples were divided into two parts. Half brain samples were homogenized using ice-cold phosphate buffer saline (pH-7.4) and homogenates were stored below −70±10° C. until analysis. Total homogenate volume was three times the brain weight. Other part of brain was stored below −70±10° C. for further analysis. All samples were processed for analysis by protein precipitation using acetonitrile and analyzed with fit-for-purpose LC/MS/MS method (LLOQ-2.02 ng/mL for plasma and 6.06 ng/g for brain). Pharmacokinetic parameters were calculated using the non-compartmental analysis tool of Phoenix WinNonlin®.
Protocol B: Thirty six mice were included into the study and divided in to three groups as Group 1 (n=12), Group 2 (n=12) and Group 3 (n=12) with n=2 mice per time-point design. Animals in Group 1 were administered intravenously with solution formulation of PSY-05-00414-001 at 5 mg/kg dose. Animals in Group 2 were administered orally with solution formulation of PSY-05-00414-001 at a dose of 5 mg/kg. Animals in Group 3 were administered intraperitoneally with solution formulation of PSY-05-00414-001 at 5 mg/kg dose. The formulation vehicle for all the three groups was 5% NMP, 5% Solutol HS-15 and 90% normal saline. Blood samples (approximately 60 μL) were collected under light isoflurane anesthesia from two mice at 0.25, 0.5, 1, 2, 4 and 8 h. Plasma was harvested by centrifugation of blood and stored at −70±10° C. until analysis. After blood collection, brain was perfused and isolated at 0.25, 0.5, 1, 2, 4 and 8 h. Brain samples were dipped thrice in ice-cold phosphate buffer saline, blotted dry and cut in to two equal portion. Half-brain samples from each time-point were weighed and homogenized using ice-cold phosphate buffer saline with twice volume of brain weight making the total homogenate three volumes and stored below −70±10′° C. until analysis. Remaining half-portions of brain samples was snap freeze and kept in −70±10° C. until further confirmation from client. Plasma and brain samples were quantified by fit-for-purpose LC-MS/MS method (LLOQ: 1.01 ng/mL for plasma and 2.02 ng/mL for brain).
Protocol C: Fifty four male mice were included in study and divided in to three groups as Group 1 (n=18), Group 2 (n=18) and Group 3 (n=18) with 3 mice/time point design. […]

human MAGL = target: T2, human MAGL (Homo sapiens, UniProt Q99685); experiment: MAGL inhibition potency assay with 4-nitrophenyl acetate (4NPA) substrate, absorbance 405 nm; assay type: biochemical; settings: read-out: MAGL Potency (Detection Method)
T2 construct: recombinant MAGL enzyme (aa 2-303 RBC, internal preparation)
T2 sequence (Q99685 2-303): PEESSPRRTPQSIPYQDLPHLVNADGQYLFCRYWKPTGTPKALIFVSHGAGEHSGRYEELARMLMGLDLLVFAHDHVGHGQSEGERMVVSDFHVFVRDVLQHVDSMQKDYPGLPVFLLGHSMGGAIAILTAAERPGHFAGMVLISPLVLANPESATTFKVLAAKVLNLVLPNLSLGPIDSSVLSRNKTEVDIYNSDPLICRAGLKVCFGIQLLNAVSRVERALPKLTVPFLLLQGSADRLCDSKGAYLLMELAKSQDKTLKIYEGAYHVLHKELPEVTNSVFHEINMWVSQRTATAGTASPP

- A: degree to which MAGL enzymatic activity returned following washout (MAGL enzyme): 47%
SMILES: O=C(c1cc(O)ccc1F)N1CC2(CC(n3cc(C4CC4)c(-c4ccccc4F)n3)C2)C1 (single isomer, unassigned) [Compound 493, (6-(4-Cyclopropyl-3-(2-fluorophenyl)-1H-pyrazol-1-yl)-2-azaspiro [3.3]heptan-2-yl) (2-fluoro-5-hydroxyphenyl) methanone]

- A: degree to which MAGL enzymatic activity returned following washout (MAGL enzyme): 100%
SMILES: Cc1cn(C2CC3(C2)CN(C(=O)c2cc(O)ccc2F)C3)nc1-c1cc(F)ccc1Cl [Compound 520, (6-(3-(2-chloro-5-fluorophenyl)-4-methyl-1H-pyrazol-1-yl)-2-azaspiro [3.3]heptan-2-yl)(2-fluoro-5-hydroxyphenyl) methanone]

- A: degree to which MAGL enzymatic activity returned following washout (MAGL enzyme): 155%
SMILES: Cc1cnn(C2CC3(C2)CN(C(=O)c2cc(O)ccc2F)C3)c1-c1cc(F)ccc1Cl (single isomer, unassigned) [Compound 519, (6-(5-(2-chloro-5-fluorophenyl)-4-methyl-1H-pyrazol-1-yl)-2-azaspiro [3.3]heptan-2-yl) (2-fluoro-5-hydroxyphenyl) methanone]

SMILES: O=C(Oc1ccc([N+](=O)[O-])cc1)N1CCC(C(O)(c2ccc3c(c2)OCO3)c2ccc3c(c2)OCO3)CC1 [JZL-184, reference compound]
- B: % MAGL activity returning after washout (MAGL enzyme; immediately following a 30 minute washout, relative to control (no inhibitor before washout), pre-washout 1 μM): <1%
- A: degree to which MAGL enzymatic activity returned following washout (MAGL enzyme): complete lack of return of MAGL enzymatic activity

SMILES: O=C(c1cc(O)ccc1F)N1CC2(CC(n3cc(C(F)(F)F)c(-c4ccccc4F)n3)C2)C1 (single isomer, unassigned) [Compound 473, (2-fluoro-5-hydroxyphenyl)(6-(3-(2-fluorophenyl)-4-(trifluoromethyl) 1H-pyrazol-1-yl)-2-azaspiro[3.3]heptan-2-yl)methanone]
- A: degree to which MAGL enzymatic activity returned following washout (MAGL enzyme): 41%
- AUC(0-t) [1]: 464 ng·h/mL
- Cmax [1]: 172 ng/g

- IC50 (human MAGL; Method 2: Cayman Chemical MAGL enzyme prep, 10 nM enzyme): < 50 nM
- IC50 (human MAGL; Method 3: Reaction Biology MAGL enzyme prep, 10 nM enzyme): < 50 nM
- IC50 (human MAGL; Method 5: Cayman Chemical MAGL enzyme prep, 25 nM enzyme): < 50 nM
SMILES: Cc1cc(C2CC3(C2)CN(C(=O)c2ccc(F)cc2OCC(F)(F)F)C3)n(-c2ccccc2C)n1 [Compound 178, [4-fluoro-2-(2,2,2-trifluoroethoxy)phenyl]{6-[3-methyl-1-(o-tolyl)-5-pyrazolyl]-2-aza-2-spiro[3.3]heptyl}methanone]

Reference: patent US20250084065A1, “INHIBITING MONOACYLGLYCEROL LIPASE (MAGL)” (Psy Therapeutics, Inc., priority 2021, published 2025)
